Our source for the IC50 values is US20260347372A1, “SMALL MOLECULE INHIBITORS OF KRAS G12D MUTANT” (MERCK SHARP & DOHME LLC, priority 2023, published 2026).

Some results are limits rather than exact numbers.

Assay [1] concerns the target KRAS G12D (Homo sapiens, UniProt P01116, G12D). As to the kind of experiment: SOS-catalyzed nucleotide exchange assay, KRAS G12D (Procedure A). The class given is biochemical. The following applies: guanine nucleotide exchange (GNE). The gist of the method: (§1)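 Compounds in 10-point 3-fold series sat 60 min with biotin-KRAS/Bodipy-GDP/Tb-streptavidin complex, then human SOS and 3 mM GTP were added. G13D: 1.25 nM KRAS, no SOS, 30 min. WT and G12D: 1 nM with 40 nM SOS, 60 min. G12C (C51S/C80L/C118S): 3 nM/40 nM, 60 min. Curves fitted from normalised TR-FRET 520/495 ratio.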

Assay [2] deals with KRAS WT (Homo sapiens, UniProt P01116). As to the kind of experiment: SOS-catalyzed nucleotide exchange assay, KRAS WT (Procedure A). The settings on record: GNE. In kind it is biochemical. The gist of the method:
as §1

The target in assay [3] is KRAS G12C (Homo sapiens, UniProt P01116, C118S/C51S/C80L/G12C). Nature of the assay: SOS-catalyzed nucleotide exchange assay, KRAS G12C (Procedure A). The following applies: GNE. In kind it is biochemical. The gist of the method:
as §1

The target in assay [4] is KRAS G12V (Homo sapiens, UniProt P01116, G12V). As to the kind of experiment: SOS-catalyzed nucleotide exchange assay, KRAS G12V (Procedure A). In kind it is biochemical. The settings on record: GNE. The procedure, abridged: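 Biotinylated KRAS G12V was loaded with Bodipy-GDP alongside Terbium-streptavidin to form a TR-FRET complex, which was preincubated with compounds for 60 minutes in 384-well plates. Human SOS protein and unlabeled GTP were then added for 90 minutes, giving final concentrations of 1.25 nM KRAS-G12V, 160 nM SOS and 3 mM GTP. The 520/495 nm emission ratio was read on an Envision.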
Chain of KRAS G12V (P01116 with tags, fused parts or gaps isoform P01116-2 G12V): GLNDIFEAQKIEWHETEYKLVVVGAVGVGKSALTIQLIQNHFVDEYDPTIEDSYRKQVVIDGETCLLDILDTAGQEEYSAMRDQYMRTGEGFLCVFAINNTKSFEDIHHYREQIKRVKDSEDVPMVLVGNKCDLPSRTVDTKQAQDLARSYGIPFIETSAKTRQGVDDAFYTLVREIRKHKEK

For assay [5], the target named is KRAS G13D (Homo sapiens, UniProt P01116, G13D). Nature of the assay: SOS-catalyzed nucleotide exchange assay, KRAS G13D (Procedure A). In kind it is biochemical. The following applies: GNE. The gist of the method:
as §1

The target of assay [6] is HRAS (Homo sapiens, UniProt P01112). Nature of the assay: SOS-catalyzed nucleotide exchange assay, HRAS (Procedure A). The following applies: GNE. In kind it is biochemical. The procedure, abridged: (§2)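 60 min cpd preinc. w/ RAS–Bodipy-GDP–Tb-SA complex; + hSOS/GTP (3 mM final), RT. G12C 3 nM RAS/40 nM SOS; WT, G12D 1 nM/40 nM; 60 min rxn. G13D 1.25 nM, no SOS, 30 min rxn. HEPES pH 7.5, 10 mM MgCl2. Ratio 520/495, norm. to DMSO/max-inhibitor ctrls.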
Chain of HRAS (P01112 with tags, fused parts or gaps): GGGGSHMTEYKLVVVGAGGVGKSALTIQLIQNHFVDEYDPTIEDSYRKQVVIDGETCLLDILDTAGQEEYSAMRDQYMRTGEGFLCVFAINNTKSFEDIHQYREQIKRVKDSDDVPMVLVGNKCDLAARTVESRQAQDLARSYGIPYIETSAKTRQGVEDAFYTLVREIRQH

The target of assay [7] is NRAS (Homo sapiens, UniProt P01111). Nature of the assay: SOS-catalyzed nucleotide exchange assay, NRAS (Procedure A). The following applies: GNE. The class given is biochemical. The procedure, abridged:
as §2

For assay [8], the target named is T1, PANC08.13 cells (Homo sapiens, UniProt P01116, G12D).
T1 construct: p-ERK/total ERK AlphaSureFire read-out
T1 sequence (P01116 1-188 isoform P01116-2 G12D): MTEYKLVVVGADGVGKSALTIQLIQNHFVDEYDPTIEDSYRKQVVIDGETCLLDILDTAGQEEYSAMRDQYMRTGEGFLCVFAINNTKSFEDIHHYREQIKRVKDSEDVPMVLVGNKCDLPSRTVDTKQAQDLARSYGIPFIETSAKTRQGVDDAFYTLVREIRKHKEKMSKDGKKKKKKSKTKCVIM
Nature of the assay: Cellular phospho-ERK assay, PANC08.13 cells (KRAS G12D). The class given is cell-based. The following applies: 2 hours, read-out: PANCO 813 pERK IC50. The procedure: Procedure for Cellular Phospho-ERK Assay in KRAS Wild Type and Mutant (G12D, G12V) Cell Lines
PANC08.13 cells (ATCC® CRL-2551™), containing homozygous KRAS-G12D activating mutation, were cultured in growth medium made of RPMI1640-GlutaMAX™-I (ThermoFisher Scientific 61870) containing 15% heat inactivated fetal bovine serum (ThermoFisher Scientific 10091148)). AsPC-1 cells (ATCC® CRL-1682™), containing homozygous KRAS-G12D activating mutation, were cultured in T150 flask in growth medium (RPMI medium 1640-GlutaMAX™-I (ThermoFisher Scientific 61870) containing 10% fetal bovine serum (ThermoFisher Scientific 10091148)).
Cells for the assay were harvested in growth medium after TrypLE (ThermoFisher scientific 12604021) digestion and were seeded in a 384-well collagen coated cell culture plate (Corning 356702) at a density of 10,000-15,000 cells/20 μL/well, and incubated at 37° C., 5% CO2 overnight. The compound (with 10 mM stock concentration) dose-response titrations were prepared [30 μM final ERK detection assay concentration and 1:3 dilutions, 10-point dose response] and appropriate amounts (270 nL) of test compounds were dispensed in a 384-well intermediate plate using an Echo 550 liquid handler. 30 μL/well of RPMI medium 1640-GlutaMAX™-I was added to the intermediate plate and the contents of the intermediate plate (10 μL/well) were then transferred to the 384-well collagen coated cell culture plate, which was incubated at 37° C., 5% CO2 for 2 hours. After removal of medium from the collagen coated cell culture plate, cells were lysed in lysis buffer from Alpha SureFire® Ultra™ Multiplex p-ERK and total ERK assay kit (PerkinElmer MPSU-PTERK) containing Halt™ Protease and Phosphatase inhibitor cocktail (ThermoFisher Scientific 78446) at room temperature with constant shaking at 300 rpm for 30 minutes. The cell lysates were then transferred to an OptiPlate-384 plate (PerkinElmer 6005620), and the phosphorylation of ERK (p-ERK) and total ERK levels were detected by Alpha SureFire® Ultra™ Multiplex p-EEK kit and total ERK assay kit (PerkinElmer MPSU-PTERK) following the manufacturer's protocol. Assay plates were read on a EnVision Multimode Plate Reader (PerkinElmer), and the ratio of p-ERK vs. total ERK in each well was used as the final readout. Dose response curves were analyzed using a 4-parameter logistic model to calculate IC50 values using Spotfire software.

Chain of KRAS G12D (P01116 with tags, fused parts or gaps isoform P01116-2 G12D): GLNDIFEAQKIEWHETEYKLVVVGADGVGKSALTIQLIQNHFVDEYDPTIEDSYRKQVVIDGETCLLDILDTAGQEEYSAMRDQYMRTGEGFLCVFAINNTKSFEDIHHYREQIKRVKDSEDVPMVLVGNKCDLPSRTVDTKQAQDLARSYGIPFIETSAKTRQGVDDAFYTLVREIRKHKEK
Chain of KRAS WT (P01116 with tags, fused parts or gaps isoform P01116-2): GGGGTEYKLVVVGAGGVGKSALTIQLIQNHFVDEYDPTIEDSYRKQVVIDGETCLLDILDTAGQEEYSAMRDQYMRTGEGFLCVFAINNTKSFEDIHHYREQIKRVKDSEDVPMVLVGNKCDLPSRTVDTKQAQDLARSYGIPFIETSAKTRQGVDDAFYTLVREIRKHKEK
Chain of KRAS G12C (P01116 with tags, fused parts or gaps isoform P01116-2 G12C/C51S/C80L/C118S): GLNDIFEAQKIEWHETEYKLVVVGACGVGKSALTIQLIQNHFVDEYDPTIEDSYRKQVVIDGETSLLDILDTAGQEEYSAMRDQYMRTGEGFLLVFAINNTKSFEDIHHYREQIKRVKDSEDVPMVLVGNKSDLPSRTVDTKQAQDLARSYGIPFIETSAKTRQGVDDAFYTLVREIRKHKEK
Chain of KRAS G13D (P01116 with tags, fused parts or gaps isoform P01116-2 G13D): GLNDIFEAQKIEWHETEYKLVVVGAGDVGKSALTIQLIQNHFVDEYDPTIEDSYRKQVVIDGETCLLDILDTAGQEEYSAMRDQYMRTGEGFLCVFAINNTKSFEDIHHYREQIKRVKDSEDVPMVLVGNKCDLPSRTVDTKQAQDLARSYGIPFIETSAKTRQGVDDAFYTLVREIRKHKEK
Chain of NRAS (P01111 with tags, fused parts or gaps): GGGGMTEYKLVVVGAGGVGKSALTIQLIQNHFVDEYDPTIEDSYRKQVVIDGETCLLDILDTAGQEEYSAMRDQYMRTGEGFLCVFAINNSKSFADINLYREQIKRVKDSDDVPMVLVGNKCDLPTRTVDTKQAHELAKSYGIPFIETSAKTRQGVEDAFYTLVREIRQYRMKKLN

Take `Cc1cc2[nH]nc(C#N)c2c(-c2nccc3c4c(N5C[C@H]6CC[C@@H](C5)N6)nc(OC[C@@]56CCCN5C[C@H](F)C6)nc4n(C)c23)c1C(F)F` (single isomer, unassigned) [Ex-4]: the IC50 (as a rule, the midpoint of a concentration-inhibition curve) was 0.119 µM in assay [1]; over 11.1 µM in assay [2]; over 11.1 µM in assay [3]; over 11.1 µM in assay [4]; 4.02 µM in assay [5]; over 11.1 µM in assay [6]. Also, the values for the IC50 in assay [7] and in assay [8] were over 11.1 µM and 3.75 µM, respectively.
Turning to `Cn1c2nc(OC[C@@]34CCCN3C[C@H](F)C4)nc(N3C[C@H]4CC[C@@H](C3)N4)c2c2ccnc(-c3ccc(F)c4sc(N)c(C#N)c34)c21` [Ex-5, 4-(4-((1R,5S)-3,8-diazabicyclo[3.2.1]octan-3-yl)-2-(((2R,7aS)-2-fluorotetrahydro-1H-pyrrolizin-7a(5H)-yl)methoxy)-9-methyl-9H-pyrido[4′,3′:4,5]pyrrolo[2,3-d]pyrimidin-8-yl)-2-amino-7-fluorobenzo[b]thiophene-3-carbonitrile], the IC50 was 0.018 µM in assay [1]; over 11.1 µM in assay [2]; over 11.1 µM in assay [3]; over 11.1 µM in assay [4]; 0.349 µM in assay [5]; over 11.1 µM in assay [6]. Moreover, the IC50 in assay [7] was over 11.1 µM; in assay [8], 1.19 µM.
With `Cc1cc(N)nc(-c2nccc3c4c(N5C[C@H]6CC[C@@H](C5)N6)nc(OC[C@@]56CCCN5C[C@H](F)C6)nc4n(C)c23)c1C(F)(F)F` [Ex-6, 6-(4-((1R,5S)-3,8-diazabicyclo[3.2.1]octan-3-yl)-2-(((2R,7aS)-2-fluorotetrahydro-1H-pyrrolizin-7a(5H)-yl)methoxy)-9-methyl-9H-pyrido[4′,3′:4,5]pyrrolo[2,3-d]pyrimidin-8-yl)-4-methyl-5-(trifluoromethyl)pyridin-2-amine], the IC50 was 0.906 µM in assay [1]; over 11.1 µM in assay [2]; over 11.1 µM in assay [3]; over 11.1 µM in assay [4]; over 11.1 µM in assay [5]; over 11.1 µM in assay [6]. In addition, the values for the IC50 in assay [7] and in assay [8] were over 11.1 µM and 9.85 µM, respectively.
On to `C#Cc1c(F)ccc2cc(N)nc(-c3nccc4c5c(N6C[C@H]7CC[C@@H](C6)N7)nc(OC[C@@]67CCCN6C[C@H](F)C7)nc5n(C)c34)c12` [Ex-7, 1-(4-((1R,5S)-3,8-diazabicyclo[3.2.1]octan-3-yl)-2-(((2R,7aS)-2-fluorotetrahydro-1H-pyrrolizin-7a(5H)-yl)methoxy)-9-methyl-9H-pyrido[4′,3′:4,5]pyrrolo[2,3-d]pyrimidin-8-yl)-8-ethynyl-7-fluoroisoquinolin-3-amine], for which the IC50 in assay [1] is 0.051 µM; in assay [2], over 11.1 µM; in assay [3] it was over 11.1 µM; in assay [4] it was over 11.1 µM; in assay [5] it was 1.45 µM; in assay [6], over 11.1 µM. The IC50 was over 11.1 µM in assay [7] and 0.572 µM in assay [8].
For the compound `Nc1nc2c(-c3nccc4c3sc3nc(OC[C@@]56CCCN5C[C@H](F)C6)nc(N5C[C@H]6CC[C@@H](C5)N6)c34)c(F)cc(F)c2o1` [Ex-15, 4-(4-((1R,5S)-3,8-diazabicyclo[3.2.1]octan-3-yl)-2-(((2R,7aS)-2-fluorotetrahydro-1H-pyrrolizin-7a(5H)-yl)methoxy)pyrido[4′,3′:4,5]thieno [2,3-d]pyrimidin-8-yl)-5,7-difluorobenzo[d]oxazol-2-amine], the IC50 in assay [1] was 4.99 µM; in assay [2] it was over 11.1 µM; in assay [3] it was over 11.1 µM; in assay [4] it was over 11.1 µM; in assay [5], over 11.1 µM; in assay [6] it was over 11.1 µM. In addition, the concentration for half-maximal inhibition (IC50) was over 11.1 µM in assay [7] and over 10 µM in assay [8].
As for `N#Cc1c(N)sc2c(F)ccc(-c3nccc4c3sc3nc(OC[C@@]56CCCN5C[C@H](F)C6)nc(N5C[C@H]6CC[C@@H](C5)N6)c34)c12` [Ex-17, 4-(4-((1R,5S)-3,8-diazabicyclo[3.2.1]octan-3-yl)-2-(((2R,7aS)-2-fluorotetrahydro-1H-pyrrolizin-7a(5H)-yl)methoxy)pyrido[4′,3′:4,5]thieno [2,3-d]pyrimidin-8-yl)-2-amino-7-fluorobenzo[b] thiophene-3-carbonitrile], the IC50 is 0.024 µM in assay [1]; over 11.1 µM in assay [2]; over 11.1 µM in assay [3]; over 11.1 µM in assay [4]; over 11.1 µM in assay [5]; over 11.1 µM in assay [6]. Further, the IC50 in assay [7] was over 11.1 µM; in assay [8], 1.64 µM.
Turning to `Cc1cc2[nH]ncc2c(-c2nccc3c2sc2nc(OC[C@]4(CO)CC4(F)F)nc(N4C[C@H]5CC[C@@H](C4)N5)c23)c1C(F)(F)F` [Ex-25, ((1R)-1-(((4-((1R,5S)-3,8-diazabicyclo[3.2.1]octan-3-yl)-8-(6-methyl-5-(trifluoromethyl)-1H-indazol-4-yl)pyrido[4′,3′:4,5]thieno[2,3-d]pyrimidin-2-yl)oxy)methyl)-2,2-difluorocyclopropyl)methanol], the IC50 was 1.02 µM in assay [1]; over 11.1 µM in assay [2]; over 11.1 µM in assay [3]; over 11.1 µM in assay [4]; over 11.1 µM in assay [5]; over 11.1 µM in assay [6]. The IC50 in assay [7] is over 11.1 µM; in assay [8], 2.87 µM.
`N#Cc1c(N)sc2c(F)cc(F)c(-c3nccc4c3sc3nc(OC[C@]5(CO)CC5(F)F)nc(N5C[C@H]6CC[C@@H](C5)N6)c34)c12` [Ex-61, 4-(4-((1R,5S)-3,8-diazabicyclo[3.2.1]octan-3-yl)-2-(((R)-2,2-difluoro-1-(hydroxymethyl)cyclopro-pyl)methoxy)pyrido[4′,3′: 4,5]thieno[2,3-d]pyrimidin-8-yl)-2-amino-5,7-difluorobenzo[b]thiophene-3-carbonitrile]: the half-inhibitory concentration (IC50) in assay [1] is 0.859 µM; in assay [2], over 11.1 µM; in assay [4], over 11.1 µM; in assay [8], 7.35 µM.
For the compound `Cc1cc2[nH]ncc2c(-c2nccc3c2sc2nc(OCC4(CO)CCC4)nc(N4C[C@H]5CC[C@@H](C4)N5)c23)c1C(F)F` [Ex-64, (1-(((4-((1R,5S)-3,8-diazabicyclo[3.2.1]octan-3-yl)-8-(5-(difluoromethyl)-6-methyl-1H-indazol-4-yl)pyrido[4′,3′:4,5]thieno[2,3-d]pyrimidin-2-yl)oxy)methyl)cyclobutyl)methanol], the IC50 is 9.42 µM in assay [1], over 11.1 µM in assay [2], over 11.1 µM in assay [4] and over 10 µM in assay [8].
